Assay results: publication PMC7351850 (European Journal of Clinical Pharmacology, 2020)

How the values were obtained:
[1] = metformin 750 mg single dose alone, fed, n=24
Protocol: (§5) Subjects were admitted to hospital on Day 1 and were discharged on Day 12. […] On Day 3 and Days 5–11, subjects received peficitinib 150 mg (150 mg × 1 tablet), once daily. Subjects returned for an end-of-study examination on Day 15 ± 2.
(§6) The planned sample size was 24 subjects, based on the precedent set by other PK studies of a similar nature [21, 22]. The safety analysis set (SAF) consisted of all subjects who received at least one dose of study drug. The PK analysis set (PKAS) consisted of subjects who received the study drug and provided at least one estimable PK parameter. Plasma PK parameters were calculated by non-compartmental analysis using Phoenix(R) WinNonlin(R) software, version 6.2 (Certara USA, Inc., Princeton, NJ, USA). Baseline demographic and other characteristics, vital signs, clinical laboratory findings, 12-lead ECG results and TEAEs were summarised for the SAF using descriptive statistics.
(§7) Statistical analyses were performed using SAS(R) software, version 9.4 (SAS Institute Inc., Cary, NC, USA). […] The least-square (LS) geometric mean ratio (GMR) and its 90% confidence interval (CI) were calculated using the exponential-transformed LS geometric mean difference and CI. Missing data were not imputed or used for analyses.

clinical = conditions: male, human, plasma, po, 750 mg, metformin 750 mg single dose alone, fed, n=24; for AUC(0-inf): Plasma AUCinf of metformin; for Cmax: Plasma Cmax of metformin
Protocol: as §5, §6, §7

[2] = Earlier clinical pharmacokinetic and mass balance studies of peficitinib; assay type: in vivo, healthy subjects; conditions: single oral dose of 150 mg, fasted; calculated from 524.5 ng/mL assuming 72.83% protein bound
OCT2 = molecular target: T1, OCT2 (Homo sapiens, UniProt O15244); assay: Inhibition of [14C]metformin uptake into OCT2-expressing HEK293 cells; assay type: cell-based
T1 construct: containing full-length human transporter cDNA; host or cells: HEK293
T1 sequence (O15244 1-555): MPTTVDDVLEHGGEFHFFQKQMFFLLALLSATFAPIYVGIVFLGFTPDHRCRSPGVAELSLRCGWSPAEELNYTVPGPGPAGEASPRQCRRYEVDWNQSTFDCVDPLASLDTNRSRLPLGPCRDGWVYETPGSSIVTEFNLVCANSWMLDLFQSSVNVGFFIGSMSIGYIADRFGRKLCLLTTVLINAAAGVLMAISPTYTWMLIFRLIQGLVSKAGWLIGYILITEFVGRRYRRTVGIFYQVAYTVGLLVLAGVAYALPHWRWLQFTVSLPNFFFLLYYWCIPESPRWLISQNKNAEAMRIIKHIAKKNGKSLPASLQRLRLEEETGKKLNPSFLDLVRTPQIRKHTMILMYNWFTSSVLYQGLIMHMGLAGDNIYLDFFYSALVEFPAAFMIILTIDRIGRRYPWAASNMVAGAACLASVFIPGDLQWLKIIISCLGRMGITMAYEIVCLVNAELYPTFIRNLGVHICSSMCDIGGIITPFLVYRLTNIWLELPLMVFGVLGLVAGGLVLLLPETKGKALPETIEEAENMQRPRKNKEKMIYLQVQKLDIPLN
Text: (§1) Human embryonic kidney (HEK293) cells expressing OCT1, OCT2, MATE1 and MATE2-K were established at the ADME & Tox. Research Institute (Sekisui Medical Co., Ltd, Ibaraki, Japan) by transfection of a pcDNA vector (Invitrogen, Carlsbad, CA, USA) containing full-length human transporter cDNA. Control HEK293 cells were established by transfection of the empty vector. The expression level of transporter mRNA in transfected cells was verified periodically by real-time polymerase chain reaction. […] The cells were maintained at 37 °C with 5% CO2 in DMEM containing 10% FBS with antibiotic-antimycotics and L-glutamine.
(§2) Assays were performed in triplicate. […]
(§3) After incubation, the test solution was removed, and the cells were washed once with ice-cold 0.2% bovine serum albumin in phosphate-buffered saline (PBS) and twice with 1 mL of ice-cold PBS. […] After the cell lysate was mixed by pipetting, 0.3 mL (OCT1, OCT2, and MATE1) or 0.5 mL (MATE2-K) of the lysate was collected into a glass vial and mixed with 10 mL of the scintillator Hionic-fluor (PerkinElmer, Inc., Waltham, MA, USA) to measure the radioactivity using a liquid scintillation counter (2500TR [PerkinElmer, Inc.]).
(§4) Protein content was measured using the BCA Protein Assay Kit (Thermo Fisher Scientific, Inc., Waltham, MA, USA, or Pierce, Rockford, IL, USA) in accordance with the manufacture’s recommendations. […]

OCT1 = molecular target: T2, OCT1 (Homo sapiens, UniProt O15245); assay: Inhibition of [14C]metformin uptake into OCT1-expressing HEK293 cells; assay type: cell-based
T2 construct: containing full-length human transporter cDNA; host or cells: HEK293
T2 sequence (O15245 1-554): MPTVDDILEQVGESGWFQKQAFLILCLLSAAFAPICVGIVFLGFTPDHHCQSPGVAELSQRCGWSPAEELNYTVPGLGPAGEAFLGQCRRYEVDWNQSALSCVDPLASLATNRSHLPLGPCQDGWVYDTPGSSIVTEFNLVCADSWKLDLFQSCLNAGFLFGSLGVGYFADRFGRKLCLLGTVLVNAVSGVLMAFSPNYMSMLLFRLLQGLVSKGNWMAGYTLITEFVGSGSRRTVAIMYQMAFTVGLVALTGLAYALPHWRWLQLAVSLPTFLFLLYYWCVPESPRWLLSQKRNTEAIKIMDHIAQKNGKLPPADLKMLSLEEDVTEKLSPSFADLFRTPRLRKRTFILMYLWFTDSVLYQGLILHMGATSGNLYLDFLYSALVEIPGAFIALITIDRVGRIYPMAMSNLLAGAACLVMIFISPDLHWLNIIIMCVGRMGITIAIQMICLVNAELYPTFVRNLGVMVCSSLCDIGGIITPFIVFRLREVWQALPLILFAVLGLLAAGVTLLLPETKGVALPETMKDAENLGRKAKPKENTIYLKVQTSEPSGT
Text: as §1, §2, §3, §4

[3] = set-up: method as in earlier work; conditions: cited from earlier work
MATE1 = molecular target: T3, MATE1 (Homo sapiens, UniProt Q96FL8); assay: Inhibition of [14C]metformin uptake into MATE1-expressing HEK293 cells; assay type: cell-based
T3 construct: containing full-length human transporter cDNA; host or cells: HEK293
T3 sequence (Q96FL8 1-570): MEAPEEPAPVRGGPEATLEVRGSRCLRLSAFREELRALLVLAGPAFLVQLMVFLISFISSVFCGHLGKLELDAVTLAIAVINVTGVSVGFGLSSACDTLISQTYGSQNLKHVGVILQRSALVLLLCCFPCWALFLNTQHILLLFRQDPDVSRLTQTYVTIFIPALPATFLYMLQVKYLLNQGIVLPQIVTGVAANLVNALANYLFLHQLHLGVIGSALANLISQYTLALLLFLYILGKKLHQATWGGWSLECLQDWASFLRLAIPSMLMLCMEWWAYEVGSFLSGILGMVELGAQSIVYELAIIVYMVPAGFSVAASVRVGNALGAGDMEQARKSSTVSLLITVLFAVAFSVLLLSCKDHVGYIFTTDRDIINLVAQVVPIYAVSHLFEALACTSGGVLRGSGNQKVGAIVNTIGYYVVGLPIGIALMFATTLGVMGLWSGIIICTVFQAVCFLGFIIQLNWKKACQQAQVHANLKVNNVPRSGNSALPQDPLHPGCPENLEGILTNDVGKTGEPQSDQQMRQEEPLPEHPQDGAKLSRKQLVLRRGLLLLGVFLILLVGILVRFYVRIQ
Text: as §1, §2, §3, §4

[4] = cited from earlier work
[5] = Clinical drug-drug interaction study: safety (treatment-emergent adverse events); assay type: in vivo, healthy male subjects
Protocol: Safety assessments were undertaken from screening through to the final study assessment. Safety was assessed by the monitoring of adverse events, vital signs (supine blood pressure, supine pulse and axillary temperature), clinical laboratory tests (haematology, biochemistry and urinalysis) and 12-lead electrocardiograms (ECGs).
TEAEs were graded using the National Cancer Institute’s Common Terminology Criteria for Adverse Events (NCI CTCAE) guidelines (version 4.0).

MATE2-K = molecular target: T4, MATE2-K (Homo sapiens, UniProt Q86VL8); assay: Inhibition of [14C]metformin uptake into MATE2-K-expressing HEK293 cells; assay type: cell-based
T4 construct: containing full-length human transporter cDNA; expressed in transfected cells; host or cells: HEK293 (transient transfection)
T4 sequence (Q86VL8 1-566 isoform Q86VL8-3): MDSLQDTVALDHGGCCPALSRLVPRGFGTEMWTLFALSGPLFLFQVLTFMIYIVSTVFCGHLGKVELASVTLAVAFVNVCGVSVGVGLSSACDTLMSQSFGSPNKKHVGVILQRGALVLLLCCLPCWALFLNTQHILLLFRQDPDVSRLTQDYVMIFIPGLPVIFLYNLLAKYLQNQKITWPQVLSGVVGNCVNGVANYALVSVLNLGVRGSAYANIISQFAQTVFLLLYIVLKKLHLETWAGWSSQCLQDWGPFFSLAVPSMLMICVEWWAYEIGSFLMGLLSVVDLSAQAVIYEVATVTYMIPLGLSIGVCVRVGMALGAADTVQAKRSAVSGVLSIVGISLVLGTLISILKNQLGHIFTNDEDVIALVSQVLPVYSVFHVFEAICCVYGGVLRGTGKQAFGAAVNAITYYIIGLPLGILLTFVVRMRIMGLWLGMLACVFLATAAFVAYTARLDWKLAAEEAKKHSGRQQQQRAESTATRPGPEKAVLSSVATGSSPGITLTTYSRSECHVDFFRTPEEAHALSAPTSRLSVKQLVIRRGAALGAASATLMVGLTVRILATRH
Text: as §1, §2, §3, §4

[6] = single oral dose of [14C]peficitinib, six healthy male subjects

## CN(C)C(=N)N=C(N)N [Metformin]
[1]
  CL/F of metformin, mean (SD): 83.6 (12.5) L/h
  CL/F of metformin, median: 82.9 L/h
  CL/F of metformin, min-max: 60.2 to 110 L/h
  Plasma AUClast of metformin, mean (SD): 9050 (1410) ng∙h/mL
  Plasma AUClast of metformin, median: 8990 ng·h/mL
  Urine Aelast% of metformin, mean (SD): 38.6 (3.77) %
  Urine Aelast% of metformin, median: 37.7%
  Urine Aelast% of metformin, min-max: 33.0–49.8%
  tmax of metformin, median: 3.00 h
clinical; median
  AUC(0-inf): 9050 ng·h/mL
  Cmax: 1380 ng/mL
clinical; min-max
  AUC(0-inf): 6820 to 12500 ng·h/mL
  Cmax: 973 to 2030 ng/mL
clinical; mean (SD)
  Cmax: 1380 ng/mL

## NC(=O)c1cnc2[nH]ccc2c1N[C@@H]1[C@@H]2CC3C[C@H]1C[C@@](O)(C3)C2 [Peficitinib]
[2]
  Cmax of unbound peficitinib: 440 nM
OCT2
  IC50: 71.4 µM
OCT1
  IC50: 0.247 µM
[3]
  Protein bound: 72.83%
MATE1
  IC50: 10 µM
[4]; single and multiple doses, healthy subjects, two Phase I trials
  Urinary excretion, share of an oral dose: 9–15%
[4]; single oral dose of 150 mg, fasted conditions
  Cmax of peficitinib: 524.5 ng/mL
[4]; single oral dose of [14C]peficitinib, six healthy male subjects, assuming stability in the gastrointestinal tract
  Share of the peficitinib dose absorbed: approximately 64%
[4]; [6]
  Mean faecal excretion as unchanged peficitinib, share of administered dose: 29.8%
  Mean recovery in faeces: 56.6%
  Mean recovery in urine: 36.8%
[5]; peficitinib 150 mg, metformin 750 mg, no serious TEAEs or TEAEs leading to treatment withdrawal
  Tolerability: generally well tolerated
[5]; peficitinib alone phase, 150 mg once daily, 3/24 subjects, four mild (Grade 1) TEAEs, all considered drug related
  Subjects with TEAEs: 12.5%
[5]; peficitinib alone phase, 1/24
  Increased aspartate aminotransferase, subjects: 4.2%
  Soft faeces, subjects: 4.2%
[5]; peficitinib alone phase, 2/24
  Increased alanine aminotransferase, subjects: 8.3%
MATE2-K
  IC50: 20.8 µM

## CN/C(=N/CCSCc1nc[nH]c1C)NC#N [cimetidine, reference compound]
MATE1; typical inhibitor, cimetidine 10 μmol/L
  [14C]metformin uptake into MATE1-expressing cells, % of uptake in the absence of inhibitors: 11.9–14.7%
MATE2-K; typical inhibitor, cimetidine 100 μmol/L
  [14C]metformin uptake into MATE2-K-expressing cells, % of uptake in the absence of inhibitors: 8.2–15.1%
